This passage reports Km results from article PMC9072125 (RSC Advances, 2019).

Molecules are shown by their SMILES.

The assay concerns LfDAPDH. The following applies: 200 mM NH4Cl, 0.5 mM NADPH, 50 mM Na2CO3/NaHCO3 pH 9.0, 30 °C; reductive amination.

The Km is the substrate concentration at which the rate is half of its maximum. Consider `O=C(O)C(=O)Cc1ccccc1` [PPA], for which the Km came out at 7.61 ± 0.14 mM.
